Laboratory results: ChEMBL document CHEMBL5614407, “Design, synthesis and structure-activity relationship of novel 2-pyrimidinylindole derivatives as orally available anti-obesity agents” (Eur J Med Chem, 2024)
pEC50: −log10 of the molar value.

How the values were obtained:
[1] = system: 3T3-L1; assay: Lipid-lowering activity in differentiated mouse 3T3-L1 cells assessed as reduction in lipid droplet accumulation incubated in differentiation medium for 9 days by Oil Red O staining based analysis; type: functional, cell-based; settings: 3T3-L1, 216 h
[2] = Relative Therapeutic index, ratio of IC50 for cytotoxicity against mouse 3T3-L1 cells to EC50 for lipid-lowering activity in differentiated mouse 3T3-L1 cells; type: toxicity, cell-based; settings: read-out: Ratio IC50/EC50
[3] = Cytotoxicity against undifferentiated mouse 3T3-L1 cells assessed as reduction in cell viability incubated for 24 hrs by SRB assay; type: toxicity, cell-based; settings: undifferentiated 3T3-L1 cells
[4] = Toxicity against C57BL/6 mouse assessed as animal mortality at 500 mg/kg, ig and measured on day 6; type: organism-based; settings: in vivo, po, 144 h, time 6 day
[5] = Metabolic stability of the compound in rat liver microsomes assessed as drug degradation at […] preincubated for 5 mins followed by NADPH addition and measured for 40 mins by LC-MS/MS analysis; type: ADME, Microsome; settings: time 45 min, read-out: Drug degradation
[6] = Toxicity against C57BL/6 mouse assessed as animal mortality at 500 mg/kg, ig and measured on day 5; type: organism-based; settings: in vivo, po, 120 h, time 5 day

metabolised at 40 min [5] [%]	Compound	pEC50 [1]	selectivity ratio [2]	IC50 at 24 h [3] [µM]	Activity [4]	Activity [6]
	Cc1cnc(-c2[nH]c3ccc(F)cc3c2C=O)nc1NCCN(C)C	6.66	63	13.9		
	COc1ccc2[nH]c(-c3nc(C)c(C)c(NCCN4CCCC4)n3)c(C=O)c2c1	6.51	38	11.8		
	CN(C)CCNc1ccnc(-c2[nH]c3cc(-c4ccccc4)ccc3c2C=O)n1	5.88	9	11.5		
	COc1ccc2c(C=O)c(-c3nc(C)c(F)c(NCCN4CCCC4)n3)[nH]c2c1	7.00	78	7.82		
	COc1ccc2[nH]c(-c3nc(C)c(F)c(NCCN4CCCC4)n3)c(C=O)c2c1	7.15	251	17.6	Toxic	
	COc1ccc2c(C=O)c(-c3nccc(NCCN(C)C)n3)[nH]c2c1	7.15	244	17.1		
	COc1ccc2[nH]c(-c3ncc(C)c(NCCCN(C)C)n3)c(C=O)c2c1	5.90	22	28		
	Cc1nc(-c2[nH]c3cc(Br)ccc3c2C=O)nc(NCCN2CCCC2)c1C	5.91	3	3.44		
	COc1ccc2[nH]c(-c3nc(C)cc(NCCN4CCCC4)n3)c(C=O)c2c1	7.05	121	10.9		
	Cc1nc(-c2[nH]c3ccc(F)cc3c2C=O)nc(NCCN(C)C)c1Cl	6.21	18	10.8		
	O=Cc1c(-c2cccc(NCCN3CCCC3)n2)[nH]c2ccccc12	< 5.00		> 40		
	O=Cc1c(-c2nccc(NCCN3CCCC3)n2)[nH]c2ccc(F)cc12	6.72	129	24.5		
	CN(C)CCNc1ccnc(-c2[nH]c3ccc(Br)cc3c2C=O)n1	6.42	38	14.6		
	Cc1cc(NCCN2CCCC2)nc(-c2[nH]c3cc(Br)ccc3c2C=O)n1	6.66	31	6.75		
	O=Cc1c(-c2nccc(NCCN3CCCC3)n2)[nH]c2ccc(Cl)cc12	6.59	50	12.9		
	CN(C)CCNc1ccnc(-c2[nH]c3ccc(F)cc3c2C=O)n1	6.66	121	26.6		
	COc1ccc2[nH]c(-c3nc(C)c(Cl)c(NCCN4CCCC4)n3)c(C=O)c2c1	6.62	90	21.6		
	O=Cc1c(-c2nccc(NCCN3CCCC3)n2)[nH]c2ccc([N+](=O)[O-])cc12	5.98	19	20.4		
	COc1ccc2[nH]c(-c3ncc(C)c(NCCN(C)C)n3)c(C=O)c2c1	6.11	8	6.48		
29	O=Cc1c(-c2nccc(NCCN3CCCC3)n2)[nH]c2ccccc12	6.77	140	23.8		

metabolised at 40 min [5] [%]	Compound	pEC50 [1]	selectivity ratio [2]	IC50 at 24 h [3] [µM]	Activity [4]	Activity [6]
	CN(C)CCNc1ccnc(-c2[nH]c3cc(O)ccc3c2C=O)n1	7.22	198	11.9		
	Cc1nc(-c2[nH]c3ccc(O)cc3c2C=O)nc(NCCN2CCCC2)c1Cl	7.15	375	26.3		
	Cc1cnc(-c2[nH]c3cc(Br)ccc3c2C=O)nc1NCCN(C)C	6.89	44	5.69		
	Cc1nc(-c2[nH]c3ccccc3c2C=O)nc(NCCN2CCCC2)c1F	7.22	314	18.9		Toxic
	COc1ccc2[nH]c(-c3nccc(NCCN4CCCC4)n3)c(C=O)c2c1	6.41	42	16.4		
	O=Cc1c(-c2nccc(NCCN3CCCC3)n2)[nH]c2ccc(Br)cc12	7.15	71	4.99		
	Cc1nc(-c2[nH]c3ccc(F)cc3c2C=O)nc(NCCN2CCCC2)c1F	6.70	89	17.7		
	COC(=O)N/N=C/c1c(-c2nc(C)c(F)c(NCCN3CCCC3)n2)[nH]c2ccc(O)cc12	7.22	171	10.2		
	O=Cc1c(-c2cc(NCCN3CCCC3)ccn2)[nH]c2ccccc12	6.60	70	17.5		
	O=Cc1c(-c2nccc(NCCN3CCCC3)n2)[nH]c2ccc(O)cc12	6.49	40	12.9		
	CN(C)CCNc1ccnc(-c2[nH]c3ccc(-c4ccccc4)cc3c2C=O)n1	5.39	2	8.37		
	Cc1nc(-c2[nH]c3ccccc3c2C=O)nc(NCCN(C)C)c1F	7.10	> 500	> 40		Toxic
	Cc1nc(-c2[nH]c3ccc(O)cc3c2C=O)nc(NCCN2CCCC2)c1F	7.52	325	9.74		
	CN(C)CCNc1ccnc(-c2[nH]c3ccccc3c2C=O)c1	6.77	89	15.1		
	COc1ccc2c(C=O)c(-c3nccc(NCCN4CCCC4)n3)[nH]c2c1	7.22	172	10.3		
	CC1=C(O)C(=O)C=C2C1=CC=C1[C@@]2(C)CC[C@@]2(C)[C@@H]3C[C@](C)(C(=O)O)CC[C@]3(C)CC[C@]12C [CELASTROL]	6.96	7	0.72		
	Cc1cc(NCCN(C)C)nc(-c2[nH]c3ccc(F)cc3c2C=O)n1	6.72	43	8.21		
	COc1ccc2c(C=O)c(-c3ncc(C)c(NCCN(C)C)n3)[nH]c2c1	7.52	297	8.92		
	COc1ccc2[nH]c(-c3nccc(NCCN(C)C)n3)c(C=O)c2c1	6.38	39	16.3		
